Patent US8076315B2, “Pharmacological treatments for sleep disorders (apnoe) with prostanoid receptor antagonists” (The Board of Trustees of the University of Illinois, priority 2005, dated 2011)

What was measured:
[1] = tested on: sleep apnea in OSAS patients; conditions: cited from earlier work
[2] = tested on: spontaneous sleep apnea in the rat; experiment: spontaneous sleep apnea model in the rat (plethysmography with EEG/EMG recording); type: in vivo; conditions: for efficacy against sleep apnea (rate of apneas per hour of NREM and REM sleep, 6 hours of polygraphic recording): systemic injection 15 min before recording, Example 2, described as results that can be obtained
Method: Adult, male Sprague-Dawley rats (obtained from Sasco-King, Wilmington, Mass.; usually 8 per test group; average weight=300 g) are maintained on a 12-hour light (08:00-20:00 hour)/12-hour dark (20:00-08:00 hour) cycle for one week, housed in individual cages and given ad libitum access to food and water. Following the one week of acclimatization, animals are subjected to the following surgical procedures.
Acclimatized animals are anesthetized using a mixture of ketamine […] and xylazine (5 mg/kg) at a volume of 1 ml/kg body weight for the implantation of cortical electrodes for electroencephalogram (EEG) recording and neck muscle electrodes for electromyogram (EMG) recording. The surface of the skull is exposed surgically and cleaned with a 20% solution of hydrogen peroxide followed by a solution of 95% isopropyl alcohol. Next, a dental preparation of sodium fluoride (Flura-GEL®, Saslow Dental, Mt. Prospect, Ill.) is applied to harden the skull above the parietal cortex and allowed to remain in place for 5 minutes. The fluoride mixture is then removed from the skull above the parietal cortex. The EEG electrodes consisting of four stainless steel machine screws, having leads attached thereto, are threaded into the skull to rest on the dura over the parietal cortex. A thin layer of Justi® resin cement (Saslow Dental, Mt. Prospect, Ill.) is applied to cover the screw heads (of screws implanted in the skull) and surrounding skull to further promote the adhesion of the implant. EMG electrodes consisting of two ball-shaped wires are inserted into the bilateral neck musculature. All leads (i.e., EEG and EMG leads) are soldered to a miniature connector (39F1401, Newark Electronics, Schaumburg, Ill.). Lastly, the entire assembly is fixed to the skull with dental cement.
After surgery, all animals are allowed to recover for one week before being recorded for sleep and breathing.
Physiological parameters (see below) from each animal prepared as set forth in Example 1 are recorded on 2 occasions in random order, with recordings for an individual animal separated by at least 3 days. Fifteen minutes prior to each recording an animal receives a systemic injection (1 ml/kg intraperitoneal bolus) of either saline (control) or an active dose of a drug treatment.
Respiration is recorded by placing each animal, unrestrained, inside a single chamber plethysmograph (PLYUN1R/U; Buxco Electronics, Sharon, Conn.; dimension 6 in. ×10 in.×6 in.) ventilated with a bias flow of fresh room air at a rate of 2 L/min. A cable plugged onto the animal's connector and passed through a sealed port is used to collect the bioelectrical activity from the head implant.
Sleep and waking states are assessed using software developed by Benington et al. (1994, Sleep 17: 28-36) to analyze the biparietal EEG and nuchal EMG signals on 10-second epochs. This software discriminates wakefulness (W) as a high frequency low amplitude EEG with a concomitant high EMG tone, NREM sleep by increased spindle and […] together with decreased EMG tone, and REM sleep by a low ratio of a delta to theta activity and an absence of EMG tone. Sleep efficiency is measured as the percentage of total recorded epochs staged as NREM or REM sleep.
An accepted physiological animal model of spontaneous sleep apnea in the rat (see Radulovacki & Carley, 2002, in SLEEP-RELATED BREATHING DISORDERS: EXPERIMENTAL MODELS AND THERAPEUTIC POTENTIAL, (Carley & Radulovacki, eds.), Marcel Dekker: New York, pp. 3-16) is used to assess the effects of test drugs. More specifically, sleep apneas, defined as cessation of respiratory effort for at least 2.5 seconds, are scored for each recording session and associated with the stage of sleep in which they occur (i.e., NREM or REM sleep). The duration requirement of 2.5 seconds represents at least 2 “missed” breaths, which is therefore analogous to a 10 second apnea duration requirement in humans, which also reflects 2-3 missed breaths. […]

[3] = tested on: central apneas during all sleep stages; conditions: rats with frequent central apneas; cited from earlier work

| Compound | efficacy against sleep apnea (rate of apneas per hour of NREM and REM sleep, 6 hours of polygraphic recording) [2] | apnea frequency [3] | further results |
| --- | --- | --- | --- |
| O=C1CC2(CCCC2)CC(=O)N1CCCCN1CCN(c2ncccn2)CC1 [Buspirone] | – | – | patients with reduced apnea index ([1]; patients with sleep apnea syndrome (Mendelson et al., 1991)): 4 of 5 |
| CCCCCNC(=O)c1coc([C@H]2[C@@H](Cc3ccccc3CCC(=O)O)[C@@H]3CC[C@H]2O3)n1 [Ifetroban] | dose-dependent efficacy | – | – |
| COc1cc(N)c(Cl)cc1C(=O)N[C@H]1CN2CCC1CC2 [R-zacopride] | – | reduce apnea frequency | – |
| CC(=O)NNC(=O)N1Cc2ccccc2Oc2ccc(Cl)cc21 [SC19220] | – | – | animals in which apnea was eliminated throughout the 6-hour recording ([2]; intraperitoneal injection, 0.005 mg/kg, 4 test animals): 2 of 4; average reduction of apnea frequency with respect to placebo (DMSO) control injection ([2]; intraperitoneal injection, 0.005 mg/kg, 4 test animals, 6-hour recording): 64% |
| CN1CCN2c3ncccc3Cc3ccccc3C2C1 (stereo not drawn) [mirtazapine] | – | reduce apnea frequency | reduction of apnea frequency ([1]; one study of OSAS patients): 50% |
| Cc1nccn1CC1CCc2c(c3ccccc3n2C)C1=O (stereo not drawn) [ondansetron] | – | reduce apnea frequency | effect on sleep apnea ([1]; another study of OSAS patients): failed to demonstrate any effect |
| O=C(O)CCn1c2c(c3ccccc31)C[C@H](NS(=O)(=O)c1ccc(F)cc1)CC2 [ramatroban] | dose-dependent efficacy | – | – |
| diphloretin phosphate | dose-dependent efficacy | – | – |
| polyphloretin phosphate | dose-dependent efficacy | – | – |
